{
  "source": "ChEMBL document CHEMBL3044945",
  "about": "“Synthesis of 1,3,5-trisubstituted pyrazoline nucleus containing compounds and screening for antimicrobial activity” (2012)",
  "format_in_all_cases": "functional",
  "key": {"[1]": {"test_system": "Pseudomonas fluorescens", "experiment": "Antibacterial activity against Pseudomonas fluorescens MTCC 2421 at 100 ug/ml after 48 hr by cup-plate method", "conditions": "MTCC 2421, 48 h, read-out: DIZ"}, "[2]": {"test_system": "Bacillus subtilis", "experiment": "Antibacterial activity against Bacillus subtilis MTCC 441 at 1250 ug/ml after 48 hr by cup-plate method", "conditions": "MTCC 441, 48 h, read-out: DIZ"}, "[3]": {"test_system": "Bacillus subtilis", "experiment": "Antibacterial activity against Bacillus subtilis MTCC 441 at 750 ug/ml after 48 hr by cup-plate method", "conditions": "MTCC 441, 48 h, read-out: DIZ"}, "[4]": {"test_system": "Bacillus subtilis", "experiment": "Antibacterial activity against Bacillus subtilis MTCC 441 at 250 ug/ml after 48 hr by cup-plate method", "conditions": "MTCC 441, 48 h, read-out: DIZ"}, "[5]": {"test_system": "Pseudomonas aeruginosa", "experiment": "Antibacterial activity against Pseudomonas aeruginosa MTCC 424 at 500 ug/ml after 48 hr by cup-plate method", "conditions": "MTCC 424, 48 h, read-out: DIZ"}, "[6]": {"test_system": "Pseudomonas aeruginosa", "experiment": "Antibacterial activity against Pseudomonas aeruginosa MTCC 424 at 250 ug/ml after 48 hr by cup-plate method", "conditions": "MTCC 424, 48 h, read-out: DIZ"}, "[7]": {"test_system": "Bacillus pumilus", "experiment": "Antibacterial activity against Bacillus pumilus MTCC 1456 after 24 to 48 hr by tube dilution method"}, "[8]": {"test_system": "Pseudomonas aeruginosa", "experiment": "Antibacterial activity against Pseudomonas aeruginosa MTCC 424 after 24 to 48 hr by tube dilution method"}, "[9]": {"test_system": "Bacillus subtilis", "experiment": "Antibacterial activity against Bacillus subtilis MTCC 441 at 500 ug/ml after 48 hr by cup-plate method", "conditions": "MTCC 441, 48 h, read-out: DIZ"}, "[10]": {"test_system": "Penicillium chrysogenum", "experiment": "Antifungal activity against Penicillium chrysogenum MTCC 161 after 24 to 48 hr by tube dilution method"}, "[11]": {"test_system": "Bacillus pumilus", "experiment": "Antibacterial activity against Bacillus pumilus MTCC 1456 at 250 ug/ml after 48 hr by cup-plate method", "conditions": "MTCC 1456, 48 h, read-out: DIZ"}, "[12]": {"test_system": "Micrococcus luteus", "experiment": "Antibacterial activity against Micrococcus luteus MTCC 1538 at 750 ug/ml after 48 hr by cup-plate method", "conditions": "MTCC 1538, 48 h, read-out: DIZ"}, "[13]": {"test_system": "Staphylococcus aureus", "experiment": "Antibacterial activity against Staphylococcus aureus MTCC 1430 at 500 ug/ml after 48 hr by cup-plate method", "conditions": "MTCC 1430, 48 h, read-out: DIZ"}, "[14]": {"test_system": "Aspergillus niger", "experiment": "Antifungal activity against Aspergillus niger MTCC 2546 at 1250 ug/ml after 48 hr by cup-plate method", "conditions": "MTCC 2546, 48 h, read-out: DIZ"}, "[15]": {"test_system": "Pseudomonas aeruginosa", "experiment": "Antibacterial activity against Pseudomonas aeruginosa MTCC 424 at 100 ug/ml after 48 hr by cup-plate method", "conditions": "MTCC 424, 48 h, read-out: DIZ"}, "[16]": {"test_system": "Escherichia coli", "experiment": "Antibacterial activity against Escherichia coli MTCC 1573 at 1000 ug/ml after 48 hr by cup-plate method", "conditions": "MTCC 1573, 48 h, read-out: DIZ"}, "[17]": {"test_system": "Escherichia coli", "experiment": "Antibacterial activity against Escherichia coli MTCC 1573 at 100 ug/ml after 48 hr by cup-plate method", "conditions": "MTCC 1573, 48 h, read-out: DIZ"}, "[18]": {"test_system": "Micrococcus luteus", "experiment": "Antibacterial activity against Micrococcus luteus MTCC 1538 after 24 to 48 hr by tube dilution method"}, "[19]": {"test_system": "Bacillus pumilus", "experiment": "Antibacterial activity against Bacillus pumilus MTCC 1456 at 500 ug/ml after 48 hr by cup-plate method", "conditions": "MTCC 1456, 48 h, read-out: DIZ"}, "[20]": {"test_system": "Micrococcus luteus", "experiment": "Antibacterial activity against Micrococcus luteus MTCC 1538 at 1250 ug/ml after 48 hr by cup-plate method", "conditions": "MTCC 1538, 48 h, read-out: DIZ"}, "[21]": {"test_system": "Staphylococcus aureus", "experiment": "Antibacterial activity against Staphylococcus aureus MTCC 1430 after 24 to 48 hr by tube dilution method"}, "[22]": {"test_system": "Pseudomonas fluorescens", "experiment": "Antibacterial activity against Pseudomonas fluorescens MTCC 2421 at 500 ug/ml after 48 hr by cup-plate method", "conditions": "MTCC 2421, 48 h, read-out: DIZ"}, "[23]": {"test_system": "Bacillus subtilis", "experiment": "Antibacterial activity against Bacillus subtilis MTCC 441 at 1000 ug/ml after 48 hr by cup-plate method", "conditions": "MTCC 441, 48 h, read-out: DIZ"}, "[24]": {"test_system": "Bacillus pumilus", "experiment": "Antibacterial activity against Bacillus pumilus MTCC 1456 at 1250 ug/ml after 48 hr by cup-plate method", "conditions": "MTCC 1456, 48 h, read-out: DIZ"}, "[25]": {"test_system": "Staphylococcus aureus", "experiment": "Antibacterial activity against Staphylococcus aureus MTCC 1430 at 1000 ug/ml after 48 hr by cup-plate method", "conditions": "MTCC 1430, 48 h, read-out: DIZ"}, "[26]": {"test_system": "Aspergillus niger", "experiment": "Antifungal activity against Aspergillus niger MTCC 2546 at 100 ug/ml after 48 hr by cup-plate method", "conditions": "MTCC 2546, 48 h, read-out: DIZ"}, "[27]": {"test_system": "Pseudomonas fluorescens", "experiment": "Antibacterial activity against Pseudomonas fluorescens MTCC 2421 at 1000 ug/ml after 48 hr by cup-plate method", "conditions": "MTCC 2421, 48 h, read-out: DIZ"}, "[28]": {"test_system": "Aspergillus niger", "experiment": "Antifungal activity against Aspergillus niger MTCC 2546 after 24 to 48 hr by tube dilution method"}, "[29]": {"test_system": "Bacillus subtilis", "experiment": "Antibacterial activity against Bacillus subtilis MTCC 441 at 100 ug/ml after 48 hr by cup-plate method", "conditions": "MTCC 441, 48 h, read-out: DIZ"}},
  "data": [
    {"compound": "NC(=O)N1N=C(c2cccc3ccccc23)CC1c1ccc([N+](=O)[O-])cc1", "note": "(centres undefined)", "values": [
      {"measurement": "zone of inhibition at 100 µg/mL", "setting": "[1]", "value": 8, "unit": "mm"},
      {"measurement": "zone of inhibition at 1250 µg/mL", "setting": "[2]", "value": 16, "unit": "mm"},
      {"measurement": "zone of inhibition at 750 µg/mL", "setting": "[3]", "value": 14, "unit": "mm"},
      {"measurement": "zone of inhibition at 250 µg/mL", "setting": "[4]", "value": 12, "unit": "mm"},
      {"measurement": "zone of inhibition at 500 µg/mL", "setting": "[5]", "value": 11, "unit": "mm"},
      {"measurement": "zone of inhibition at 250 µg/mL", "setting": "[6]", "value": 10, "unit": "mm"},
      {"measurement": "MIC", "setting": "[7]", "value": 50, "unit": "µg/mL"},
      {"measurement": "MIC", "setting": "[8]", "value": 200, "unit": "µg/mL"},
      {"measurement": "zone of inhibition at 500 µg/mL", "setting": "[9]", "value": 13, "unit": "mm"},
      {"measurement": "MIC", "setting": "[10]", "value": 50, "unit": "µg/mL"},
      {"measurement": "zone of inhibition at 250 µg/mL", "setting": "[11]", "value": 8, "unit": "mm"},
      {"measurement": "zone of inhibition at 750 µg/mL", "setting": "[12]", "value": 9, "unit": "mm"},
      {"measurement": "zone of inhibition at 500 µg/mL", "setting": "[13]", "value": 10, "unit": "mm"},
      {"measurement": "zone of inhibition at 1250 µg/mL", "setting": "[14]", "value": 19, "unit": "mm"},
      {"measurement": "zone of inhibition at 100 µg/mL", "setting": "[15]", "value": 9, "unit": "mm"},
      {"measurement": "zone of inhibition at 1000 µg/mL", "setting": "[16]", "value": 13, "unit": "mm"},
      {"measurement": "zone of inhibition at 100 µg/mL", "setting": "[17]", "value": 9, "unit": "mm"},
      {"measurement": "MIC", "setting": "[18]", "value": 30, "unit": "µg/mL"},
      {"measurement": "zone of inhibition at 500 µg/mL", "setting": "[19]", "value": 9, "unit": "mm"},
      {"measurement": "zone of inhibition at 1250 µg/mL", "setting": "[20]", "value": 11, "unit": "mm"},
      {"measurement": "MIC", "setting": "[21]", "value": 50, "unit": "µg/mL"},
      {"measurement": "zone of inhibition at 500 µg/mL", "setting": "[22]", "value": 10, "unit": "mm"},
      {"measurement": "zone of inhibition at 1000 µg/mL", "setting": "[23]", "value": 15, "unit": "mm"},
      {"measurement": "zone of inhibition at 1250 µg/mL", "setting": "[24]", "value": 12, "unit": "mm"},
      {"measurement": "zone of inhibition at 1000 µg/mL", "setting": "[25]", "value": 12, "unit": "mm"},
      {"measurement": "zone of inhibition at 100 µg/mL", "setting": "[26]", "value": 10, "unit": "mm"},
      {"measurement": "zone of inhibition at 1000 µg/mL", "setting": "[27]", "value": 12, "unit": "mm"},
      {"measurement": "MIC", "setting": "[28]", "value": 50, "unit": "µg/mL"},
      {"measurement": "zone of inhibition at 100 µg/mL", "setting": "[29]", "value": 10, "unit": "mm"}
    ]}
  ]
}
